Molecules are shown by their SMILES. Where two headings read alike, the source gives them in different places. Some results are limits rather than exact numbers.

This assay deals with ATF6. Briefly: ERSE ATF6-luciferase reporter assay (thapsigargin-induced ER stress). Format: cell-based, human. The following applies: for inhibition at 1 µM: 8 hr. The procedure:
Human bone osteosarcoma (U2-OS) cells were obtained from the American Type Culture Collection (ATCC HTB-96, ATCC Manassas, VA) and were cultured with growing medium containing Dulbecco's Modified Eagle's Medium (DMEM) (Cat. No.:SH30023.02, HyClone) supplemented with fetal bovine serum (FBS) 10% (Cat. No.: 16000044, Gibco) and 1% penicillin-streptomycin antibiotic cocktail (Cat. No.: SV30010, Hyclone).
Cignal Lenti ATF6 luc reporter (Qiagen #CLS-6031L) was used to produce a stable cell line in U2-OS cells. […] The number of response elements as well as the intervening sequence between response elements has been experimentally optimized to maximize the signal to noise ratio.
Compounds were prepared as 10 mM stock solutions and stored at −80° C.
U2-OS ATF6 luc reporter cells were thawed 3-4 days and split once prior to assays. […] At the day of experiment, cells were pre-treated for 30 min with 50 μL growing medium containing either vehicle (dimethyl sulfoxide (DMSO)) (Cat. No.: D2650, Sigma-Aldrich) or 1 μM test compound. After the pre-incubation time, 50 μL of a solution containing 0.2 μM thapsigargin (Tg)(an ER stress inducer) was added to respective wells. This Tg solution also contained vehicle or test compounds at 1 μM. The final concentration of DMSO in each well was kept at 0.3%. Plates were incubated for 8 hr in humidified chambers.
Finally, after 8 hr, plates were cooled to room temperature for 10 min prior to luciferase assays. Luciferase reactions were performed using Luciferase Assay System (Cat. No.: E4550, Promega). Briefly, each well was washed with 100 μl of PBS1X and then 20 μl of lysis reagent were added into each well. Plates were shaken for 10 min, then 50 μl of Luciferase Assay Reagent were added to each well and luminescence was read with an integration time of 1 s and a gain of 110 in a Synergy 4 Microplate reader.
For the assessment of the half-maximal inhibitory concentration (IC50) for selected compounds, dose-response assays were performed. Compounds were serially diluted using DMSO starting at 30 μM until 1 nM. The assays were run as described above.
For orientation: Reporter assays use an easily measured gene product as a stand-in for the process of interest.

Where [1] appears, read: Homo sapiens, U2OS, 8 h, 1 μM test compound, thapsigargin-induced ER stress, U2-OS ATF6 luc reporter cells, read-out: Inh. ATF6-Luc @ 1 μM [%].
The mark [2] stands for this setting: Homo sapiens, U2OS, dose-response 30 μM to 1 nM, thapsigargin-induced ER stress, U2-OS ATF6 luc reporter cells, read-out: IC50 ATF6-Luc reporter.
Setting [3] is: Homo sapiens, U2OS, 8 h, read-out: Inh. ATF6-Luc @ 1 μM [%], 1 μM test compound, thapsigargin-induced ER stress, U2-OS ATF6 luc reporter cells.
The mark [4] stands for this setting: Homo sapiens, U2OS, read-out: IC50 ATF6-Luc reporter [μM], dose-response 30 μM to 1 nM, thapsigargin-induced ER stress, U2-OS ATF6 luc reporter cells.

Broadly, the IC50 is the concentration that inhibits the measured activity by half. `CC(c1ccc(C(F)(F)F)cc1C(F)(F)F)n1cc(NC(=O)c2cc(-c3ccccn3)on2)cn1` (single isomer, unassigned) [“Enantiomer B” of Example S5, N-(1-(1-(2,4-bis(trifluoromethyl)phenyl)ethyl)-1H-pyrazol-4-yl)-5-(pyridin-2-yl)isoxazole-3-carboxamide]: the concentration for half-maximal inhibition (IC50) is over 10 µM. In addition, for the setting “8 h”, the “Inh. ATF6-Luc @ 1 μM [%]” value is reported as “+ (+ refers to <25% inhibition at 1 μM)”.

Regarding `O=C(Nc1cnn(C(c2ccc(C(F)(F)F)cc2C(F)(F)F)C2CC2)c1)c1cc(-c2ccccn2)on1` (stereo not shown) [Compound 33, N-(1-((2,4-bis(trifluoromethyl)phenyl)(cyclopropyl)methyl)-1H-pyrazol-4-yl)-5-(pyridin-2-yl)isoxazole-3-carboxamide], under setting [1], the inhibition at 1 µM was under 25%. Also, the IC50 under setting [2] was over 10 µM.

For the compound `CC(c1ccc(F)cc1C(F)(F)F)n1cc(NC(=O)c2nnc(-c3ccccn3)s2)cn1` (stereo not shown) [Compound 137, N-(1-(1-(4-fluoro-2-(trifluoromethyl)phenyl)ethyl)-1H-pyrazol-4-yl)-5-(pyridin-2-yl)-1,3,4-thiadiazole-2-carboxamide], the inhibition at 1 µM under setting [1] is under 25%. Besides, the half-maximal inhibitory concentration (IC50) under setting [2] is over 10 µM.

Take `C[C@@H](c1ccc(C(F)(F)F)cc1F)n1cc(NC(=O)c2cc(-c3ccccn3)on2)cn1` [Compound 109, (S)—N-(1-(1-(2-fluoro-4-(trifluoromethyl)phenyl)ethyl)-1H-pyrazol-4-yl)-5-(pyridine-2-yl)isoxazole-3-carboxamide]: the inhibition at 1 µM under setting [1] is under 25%. The half-inhibitory concentration (IC50) under setting [2] is over 10 µM.

With `O=C(Nc1cnn(C2CCc3ccccc32)c1)c1cc(-c2ccccn2)on1` (stereo not shown) [Compound 143, N-(1-(2,3-dihydro-1H-inden-1-yl)-1H-pyrazol-4-yl)-5-(pyridin-2-yl)isoxazole-3-carboxamide], the inhibition at 1 µM under setting [1] is under 25%. The IC50 under setting [2] was over 10 µM.

With `C[C@@H](c1ccc(C(F)(F)F)cc1C(F)(F)F)n1cc(NC(=O)c2cc(-c3ccccn3)[nH]n2)cn1` [Compound 120, (S)—N-(1-(1-(2,4-bis(trifluoromethyl)phenyl)ethyl)-1H-pyrazol-4-yl)-5-(pyridin-2-yl)-1H-pyrazole-3-carboxamide], under setting [1], the inhibition at 1 µM was under 25%. Also, the IC50 under setting [2] is over 10 µM.

In the case of `O=C(Nc1cnn(Cc2c(Cl)cccc2Cl)c1)c1cnc(-c2ccco2)s1` [Compound 147, N-(1-(2,6-dichlorobenzyl)-1H-pyrazol-4-yl)-2-(furan-2-yl)thiazole-5-carboxamide], the inhibition at 1 µM under setting [1] was under 25%. For the same compound, under setting [2], the IC50 was over 10 µM.

Consider `CC(c1ccc(C(F)(F)F)cc1C(F)(F)F)n1cc(NC(=O)c2cc(-c3ccco3)on2)cn1` (single isomer, unassigned) [“Enantiomer B” of Example S6, N-(1-(1-(2,4-bis(trifluoromethyl)phenyl)ethyl)-1H-pyrazol-4-yl)-5-(furan-2-yl)isoxazole-3-carboxamide], for which the 50% inhibitory concentration (IC50) was over 10 µM. For the same compound, the “Inh. ATF6-Luc @ 1 μM [%]” value (8 h) is listed as “+ (+ refers to <25% inhibition at 1 μM)”.

On to `C[C@@H](c1ccc(C(F)(F)F)cc1C(F)(F)F)n1cc(NC(=O)c2cc(-c3ccccn3)no2)cn1` [Compound 77, (S)—N-(1-(1-(2,4-bis(trifluoromethyl)phenyl)ethyl)-1H-pyrazol-4-yl)-3-(pyridin-2-yl)isoxazole-5-carboxamide], for which the inhibition at 1 µM under setting [3] is under 25%. For the same compound, the IC50 under setting [4] was over 10 µM.

Take `Cc1c(NC(=O)/C=C/c2ccco2)cnn1Cc1ccc(C(F)(F)F)cc1C(F)(F)F` [Compound 95, (E)—N-(1-(2,4-bis(trifluoromethyl)benzyl)-5-methyl-1H-pyrazol-4-yl)-3-(furan-2-yl)acrylamide]: the inhibition at 1 µM under setting [1] is under 25%. Further, the IC50 under setting [2] is over 10 µM.

Turning to `Cc1nn(Cc2ccc(C(F)(F)F)cc2C(F)(F)F)cc1NC(=O)c1cc(-c2ccco2)on1` [Compound 92, N-(1-(2,4-bis(trifluoromethyl)benzyl)-3-methyl-1H-pyrazol-4-yl)-5-(furan-2-yl)isoxazole-3-carboxamide], the inhibition at 1 µM under setting [1] was under 25%. In addition, under setting [2], the IC50 is over 10 µM.

On to `Cc1nn(Cc2ccc(C(F)(F)F)cc2C(F)(F)F)cc1NC(=O)c1cc(-c2ccccn2)on1` [Compound 29, N-(1-(2,4-bis(trifluoromethyl)benzyl)-3-methyl-1H-pyrazol-4-yl)-5-(pyridin-2-yl)isoxazole-3-carboxamide], for which the inhibition at 1 µM under setting [1] is under 25%. Also, under setting [2], the 50% inhibitory concentration (IC50) is over 10 µM.

`CC(c1ccc(C(F)(F)F)cc1C(F)(F)F)n1cc(NC(=O)c2cc(-c3ccccn3)n(C)n2)cn1` (stereo not shown) [Compound 113, N-(1-(1-(2,4-bis(trifluoromethyl)phenyl)ethyl)-1H-pyrazol-4-yl)-1-methyl-5-(pyridin-2-yl)-1H-pyrazole-3-carboxamide]: the inhibition at 1 µM under setting [1] was under 25%. In addition, under setting [2], the IC50 was over 10 µM.

Consider `Cc1nn(-c2ccc(C(F)(F)F)cc2C(F)(F)F)cc1NC(=O)c1cc(-c2ccco2)on1` [Compound 94, N-(1-(2,4-bis(trifluoromethyl)phenyl)-3-methyl-1H-pyrazol-4-yl)-5-(furan-2-yl)isoxazole-3-carboxamide], for which, under setting [1], the inhibition at 1 µM is under 25%. Besides, the 50% inhibitory concentration (IC50) under setting [2] was over 10 µM.

Consider `C[C@@H](c1ccc(C(F)(F)F)cc1C(F)(F)F)n1cc(NC(=O)c2ccccn2)cn1` [Compound 139, (S)—N-(1-(1-(2,4-bis(trifluoromethyl)phenyl)ethyl)-1H-pyrazol-4-yl)picolinamide], for which the inhibition at 1 µM under setting [1] was under 25%. Also, under setting [2], the IC50 is over 10 µM.

Turning to `O=C(Nc1cnn(Cc2ccc(C(F)(F)F)cc2C(F)(F)F)c1)c1cnc(-c2ccccn2)s1` [Compound 118, N-(1-(2,4-bis(trifluoromethyl)benzyl)-1H-pyrazol-4-yl)-2-(pyridin-2-yl)thiazole-5-carboxamide], the inhibition at 1 µM under setting [1] is under 25%. Moreover, the half-maximal inhibitory concentration (IC50) under setting [2] fell in the range of 1 to 10 µM.

For `O=C(Nc1cnn(Cc2ccc(C(F)(F)F)cc2C(F)(F)F)c1)c1cncc(-c2cccnc2)c1` [Compound 15, N-(1-(2,4-bis(trifluoromethyl)benzyl)-1H-pyrazol-4-yl)-[3,3′-bipyridine]-5-carboxamide], the inhibition at 1 µM under setting [1] was under 25%. Under setting [2], the IC50 is over 10 µM.

For the compound `COc1ccccc1-c1cc(C(=O)Nc2cnn(Cc3ccc(C(F)(F)F)cc3C(F)(F)F)c2)no1` [Compound 91, N-(1-(2,4-bis(trifluoromethyl)benzyl)-1H-pyrazol-4-yl)-5-(2-methoxyphenyl)isoxazole-3-carboxamide], the concentration for half-maximal inhibition (IC50) under setting [2] was over 10 µM. The inhibition at 1 µM (Homo sapiens, U2OS, 1 μM test compound, thapsigargin-induced ER stress, U2-OS ATF6 luc reporter cells, read-out: Inh. ATF6-Luc @ 1 μM [%]) was under 25%.

Regarding `C[C@@H](c1ccc(C(F)(F)F)cc1C(F)(F)F)n1cc(NC(=O)c2cc(-c3cnccn3)on2)cn1` [Compound 132, (S)—N-(1-(1-(2,4-bis(trifluoromethyl)phenyl)ethyl)-1H-pyrazol-4-yl)-5-(pyrazin-2-yl)isoazole-3-carboxamide], the inhibition at 1 µM under setting [3] is under 25%. The half-inhibitory concentration (IC50) under setting [4] is over 10 µM.

With `C[C@H](c1ccc(C(F)(F)F)cc1C(F)(F)F)n1cc(NC(=O)c2cnc(-c3ccccn3)o2)cn1` [Compound 127, (R)N-(1-(1-(2,4-bis(trifluoromethyl)phenyl)ethyl)-1H-pyrazol-4-yl)-2-(pyridin-2-yl)oxazole-5-carboxamide], the inhibition at 1 µM under setting [1] is under 25%. Besides, under setting [2], the 50% inhibitory concentration (IC50) is over 10 µM.

On to `O=C(Nc1cnn(Cc2c(Cl)cccc2Cl)c1)c1cc(-c2ccco2)on1` [Compound 24, N-(1-(2,6-dichlorobenzyl)-1H-pyrazol-4-yl)-5-(furan-2-yl) isoxazole-3-carboxamide], for which the inhibition at 1 µM under setting [1] was under 25%. In addition, under setting [2], the concentration for half-maximal inhibition (IC50) is over 10 µM.

As to `O=C(Nc1cnn(Cc2ccc(C(F)(F)F)cc2C(F)(F)F)c1)c1cncc(-c2ccc(F)cc2)c1` [Compound 20, N-(1-(2,4-bis(trifluoromethyl)benzyl)-1H-pyrazol-4-yl)-5-(4 fluorophenyl)nicotinamide], the inhibition at 1 µM under setting [1] was under 25%. Further, the half-maximal inhibitory concentration (IC50) under setting [2] was over 10 µM.

`Cc1cccc(-c2cc(C(=O)Nc3cnn([C@@H](C)c4ccc(C(F)(F)F)cc4C(F)(F)F)c3)no2)n1` [Compound 117, (S)—N-(1-(1-(2,4-bis(trifluoromethyl)phenyl)ethyl)-1H-pyrazol-4-yl)-5-(6-methylpyridin-2-yl)isoxazole-3-carboxamide]: the inhibition at 1 µM under setting [1] is under 25%. In addition, the half-maximal inhibitory concentration (IC50) under setting [2] was over 10 µM.

The values are drawn from US20240124434A1, “ATF6 INHIBITORS AND USES THEREOF” (Altos Labs, Inc., priority 2018, published 2024).
